Measurements as given in US20110046228A1 (priority 2009, published 2011).
Values joined by “and” are separate entries in the source; they are usually repeats but may differ in a detail not shown here. Equal entries are not always repeated. Where two headings read alike, the source gives them in different places.

Experiments:
[1] = test system: individuals with Behcet's syndrome (or disease); settings: adjusted to bodyweight, cited from earlier work
clinical = settings: both, human, plasma, oral, 0.6 mg; for AUC(0-t): AUC0-t; for AUC(0-inf): AUC0-∞; for CL/F: Weight-Adjusted CL/F
Protocol: This study is an open-label, non-randomized, single-center, one-sequence, two-period drug interaction study conducted in healthy male and female volunteers. Twenty-four (24) non-smoking, non-obese adult volunteers will be enrolled. All subjects will be dosed and studied as a single cohort, with each subject receiving the same treatment in a non-randomized fashion. As described below, a single dose of colchicine, 0.6 mg, will be administered alone on Day 1, and then co-administered with the grapefruit juice on Day 18. Grapefruit juice will be administered for 4 consecutive days (1×240 mL twice daily Days 15-17 and Day 18 (PM) alone and co-administered with a single 0.6 mg colchicine tablet in the morning on Day 18 (AM) (1×240 mL) beginning on the morning of Day 15, with the last 240 mL grapefruit juice dose administered in the evening of Day 18. A 14-day washout period will be completed after the first colchicine dose on Day 1 and prior to the administration of the first grapefruit juice dose on Day 15.
Grapefruit juice ([…] ® brand) will be purchased and stored according to the labeled instructions. Subjects in the study will consume 240 mL (8 fluid ounces) of juice every 12 hours for 8 doses (4 day regimen) to ensure the maximum inhibitory effect.
Following a screening period of up to 28 days, 24 healthy male and female volunteers will be enrolled. Subjects will be confined to the study unit for approximately 1.5 days on two separate occasions starting at least 10 hours prior to dosing on the evening of Day 1 and Day 17 until 24 hours following study drug administration on Day 1 and Day 18. In addition to confinement, study subjects will return to the clinical study site for the collection of blood samples 36, 48, 72, and 96 hours post dosing during both colchicine pharmacokinetic sampling periods. Total study participation, exclusive of up to 28 days of screening, will be approximately 22 days, during which subjects will be confined on two occasions for a total confinement of approximately 3 days.
All subjects will receive a single 0.6 mg dose of colchicine on Day 1, followed by a 14-day washout period in which subjects will not be confined at study site. At discharge on Day 2 (at approximately 8 AM), study subjects will be instructed to return to the clinical site on Days 15 through 17 in the mornings and evenings to consume (1×240 mL, i.e., 8 fluid ounces) grapefruit juice twice daily on Days 15 through 17 in a ‘directly-observed’ fashion. On the evening of Day 17, study participants will return to the clinic for their final study confinement period. In the morning of Day 18, study subjects will receive a single 0.6 mg colchicine dose with a 240 mL serving of grapefruit juice. In the evening of Day 18, study subjects will receive their final 240 mL serving of grapefruit juice administered alone.
A minimum fasting period of 10 hours (overnight fast) will be in effect before administration of colchicine on Day 1 and prior to the administration of colchicine and grapefruit juice on Day 18. Fasting will continue for 4 hours post-dosing on Days 1 and 18 after the morning administration. Grapefruit juice doses administered on Days 15-17 and Day 18 (PM) will not be in a fasted state. For colchicine, medication must be swallowed whole, not chewed. For grapefruit juice, the entire serving must be consumed. For all treatments, the subjects will not be permitted to lie down for the first 4 hours following administration of drug to ensure proper stomach emptying. On both of the confined study days after the morning administrations (Day 1 and Day 18), water will be allowed ad libitum beginning 2 hours post-dose. Intake of all study medications will be supervised. Standardized meals will be served according to a pre-determined schedule throughout the study.
Serial blood samples will be collected by individual venipuncture up to 96 hours following drug administration on Day 1 and Day 18.

[2] = design: AUC0-t, Geometric Mean: unit not given beside the values
[3] = with a single glass (200-250 mL) of grapefruit juice; cited from earlier work
[4] = Least Squares Mean, Non-Transformed Data, single 0.6 mg colchicine dose
[5] = Mean, mean of N = 21, single 0.6 mg colchicine
[6] = Median, median of N = 21, single 0.6 mg colchicine
[7] = Geometric Mean, single 0.6 mg colchicine dose, N = 21, based on least squares means of ln-transformed values
[8] = individual subjects, single 0.6 mg colchicine, plasma, A Day 1, A + B Day 18
[9] = maximum of N = 21, single 0.6 mg colchicine, plasma
[10] = mean of N = 21, single 0.6 mg colchicine, plasma
[11] = median of N = 21, single 0.6 mg colchicine, plasma
[12] = minimum of N = 21, single 0.6 mg colchicine, plasma
[13] = single 0.6 mg colchicine dose, plasma

COc1cc2c(c(OC)c1OC)-c1ccc(OC)c(=O)cc1[C@@H](NC(C)=O)CC2 [Treatment A, (−)-N-[(7S, 12aS)-1,2,3,10-tetramethoxy-9-oxo-5,6,7,9-tetrahydrobenzo[a]heptalen-7-yl]-acetamide]
Clinical effect in Behcet's disease ([1]; 1-2 mg daily): reduced the frequency of genital ulcers, erythema nodosum, and arthritis among women and reduced the occurrence of arthritis among men
Clinical effect in Behcet's syndrome ([1]; 1-2.4 mg daily): reduced the frequency of genital ulcers, erythema nodosum, and arthritis among women and reduced the occurrence of arthritis among men
AUC(0-t) (clinical; [4]): 9.33 ng·h/mL
AUC(0-t) (clinical; [5]): 9.33 ng·h/mL
AUC(0-t) (clinical; [6]): 8.84 ng·h/mL
AUC(0-inf) (clinical; [7]): 10.5 ng·h/mL
AUC(0-inf) (clinical; [4]): 11.1 ng·h/mL
AUC(0-inf) (clinical; [5]): 11.1 ng·h/mL
AUC(0-inf) (clinical; [6]): 10.4 ng·h/mL
Cmax (clinical; [7]): 2.07 ng/mL
Cmax (clinical; [4]): 2.17 ng/mL
Cmax (clinical; [5]): 2.17 ng/mL
Cmax (clinical; [6]): 2.06 ng/mL
Tmax (clinical; [4]): 1.24 h
Tmax (clinical; [5]): 1.24 h
Tmax (clinical; [6]): 1 h
CL/F (clinical; [4]): 12.3 mL/min/kg
CL/F (clinical; [5]): 12.3 mL/min/kg
CL/F (clinical; [6]): 11.3 mL/min/kg
half-life (clinical; t1/2, Least Squares Mean, Non-Transformed Data, single 0.6 mg colchicine dose): 278 min
half-life (clinical; t1/2, Mean, mean of N = 21, single 0.6 mg colchicine): 278 min
AUC0-∞ [2, 8]: 10.8336 ng·h/mL and 14.15474 ng·h/mL and 9.5485 ng·h/mL and 13.07636 ng·h/mL and 20.67702 ng·h/mL and 9.19604 ng·h/mL and 7.56206 ng·h/mL and 10.95321 ng·h/mL and 12.50531 ng·h/mL and 8.2513 ng·h/mL and 7.55929 ng·h/mL and 21.66786 ng·h/mL and 8.57677 ng·h/mL and 10.79516 ng·h/mL and 4.54846 ng·h/mL and 9.55313 ng·h/mL
CL/F [2, 8]: 55.38 L/h and 42.39 L/h and 62.84 L/h and 57.10 L/h and 45.88 L/h and 29.02 L/h and 65.25 L/h and 79.34 L/h and 54.78 L/h and 57.58 L/h and 51.63 L/h and 57.64 L/h and 47.98 L/h and 72.72 L/h and 79.37 L/h and 27.69 L/h and 58.47 L/h and 69.96 L/h and 55.58 L/h and 131.91 L/h and 62.81 L/h
Kel [2, 8]: 0.1619 h⁻¹ and 0.2194 h⁻¹ and 0.1653 h⁻¹ and 0.1160 h⁻¹ and 0.1881 h⁻¹ and 0.0484 h⁻¹ and 0.2291 h⁻¹ and 0.1859 h⁻¹ and 0.1655 h⁻¹ and 0.1563 h⁻¹ and 0.1843 h⁻¹ and 0.1946 h⁻¹ and 0.1506 h⁻¹ and 0.1355 h⁻¹ and 0.2178 h⁻¹ and 0.0847 h⁻¹ and 0.1512 h⁻¹ and 0.1866 h⁻¹ and 0.1851 h⁻¹ and 0.2814 h⁻¹ and 0.1925 h⁻¹
Tmax [2, 8]: 1.00 h and 2.00 h
Varea/F [2, 8]: 342.07 L and 193.19 L and 380.20 L and 492.22 L and 243.91 L and 599.39 L and 284.79 L and 426.86 L and 331.07 L and 368.37 L and 280.11 L and 296.22 L and 318.56 L and 536.77 L and 364.36 L and 327.00 L and 386.70 L and 374.82 L and 300.24 L and 468.69 L and 326.22 L
t1/2 [2, 8]: 4.28 h and 3.16 h and 4.19 h and 5.98 h and 3.68 h and 14.32 h and 3.03 h and 3.73 h and 4.43 h and 3.76 h and 3.56 h and 4.60 h and 5.12 h and 3.18 h and 8.19 h and 4.58 h and 3.71 h and 3.74 h and 2.46 h and 3.60 h
AUC0-t, Max [2, 9]: 18.3968 ng·h/mL
AUC0-∞, Max [2, 9]: 21.66786 ng·h/mL
CL/F, Max [2, 9]: 131.91 L/h
Cmax, Max [2, 9]: 3.758 ng/mL
Kel, Max [2, 9]: 0.2814 h⁻¹
Tmax, Max [2, 9]: 2.00 h
Varea/F, Max [2, 9]: 599.39 L
t1/2, Max [2, 9]: 14.32 h
CL/F, Mean [2, 10]: 60.25 L/h
Kel, Mean [2, 10]: 0.1714 h⁻¹
Varea/F, Mean [2, 10]: 363.89 L
CL/F, Median [2, 11]: 57.58 L/h
Kel, Median [2, 11]: 0.1843 h⁻¹
Varea/F, Median [2, 11]: 342.07 L
t1/2, Median [2, 11]: 3.76 h
AUC0-t, Min [2, 12]: 3.83287 ng·h/mL
AUC0-∞, Min [2, 12]: 4.54846 ng·h/mL
CL/F, Min [2, 12]: 27.69 L/h
Cmax, Min [2, 12]: 845.2 pg/mL
Kel, Min [2, 12]: 0.0484 h⁻¹
Tmax, Min [2, 12]: 1.00 h
Varea/F, Min [2, 12]: 193.19 L
t1/2, Min [2, 12]: 2.46 h
Bioequivalence of oral colchicine with grapefruit juice vs in the absence of grapefruit juice ([2]; recommended maximum daily amount of grapefruit juice (about 16 fluid ounces daily)): bioequivalent
Kel, Least Squares Mean, Non-Transformed Data [2, 13]: 0.1714
Varea/F, Least Squares Mean, Non-Transformed Data [2, 13]: 363.89
AUC0-t, Geometric Mean ([2]; single 0.6 mg colchicine dose, plasma, N = 21, based on least squares means of ln-transformed values): 8806.78

CCOC(=O)C1=C(C)NC(C)=C(C(=O)OC)C1c1cccc(Cl)c1Cl (stereo not shown) [felodipine]
Change in AUC and Cmax of orally administered felodipine [3]: several-fold increase
